{
  "source": "patent US20110311455A1",
  "about": "“EN[…] GUIDED IMAGING AND […]” (THE REGENTS OF THE UNIVERSITY OF CALIFORNIA, priority 2008, published 2011)",
  "system": "normal human bronchial epithelial cells (LHS-9)",
  "assay": "Cellular fluorescence imaging of cells incubated with OVG's or free ICG",
  "assay_type": "cell-based",
  "details": "2 hr post-incubation; ICG 10 μg/ml",
  "experimental": "The cells were cultured for 24 hours in serum free culture medium supplied by the commercial vendor. […] An optical filter that allowed transmission of NIR light greater than 780 nm was used to capture the fluorescent signal onto a CCD camera.",
  "data": [
    {"compound": "CC1(C)C(/C=C/C=C/C=C/C=C2\\N(CCCCS(=O)(=O)O)c3ccc4ccccc4c3C2(C)C)=[N+](CCCCS(=O)(=O)[O-])c2ccc3ccccc3c21", "note": "[ICG, indocyanine green]", "values": [
      {"measurement": "localization in cells (confocal fluorescent images)", "result": "remains mostly localized to the “rim” of the cells"}
    ]}
  ]
}
